Where a name gives a salt, the structure may show the parent alone.
Key:
[1] = test system: mouse partial sciatic nerve ligation model; assay: von Frey test in mouse partial sciatic nerve ligation model (Seltzer model); type: in vivo, ICR mice; conditions: for inhibition in vivo at 10 mg/kg / von Frey Total Score of 1 Hour after Oral Administration (Mean ± S.E.), Test Compound-Administered Group: dose 10 mg/kg oral; for von Frey Total Score of 1 Hour after Oral Administration (Mean ± S.E.), Test Compound-Administered Group: n = 5-6, 7 days after ligation
Experimental: As a reference example, the mouse partial sciatic nerve ligation model (Seltzer model), by which neuropathic pain can be evaluated, was used to evaluate the analgesic effect of Compound (I).
Mouse models of partial sciatic nerve ligation were prepared according to Seltzer's method (Malmberg et al., Pain, 1998, vol. 76, p. 215-222). Male ICR mice of 5 weeks old were anesthetized with Sodium pentobarbital (70 mg/kg, i.p.), and thereafter, the sciatic nerve at the femoral region of the right hind limb of each mouse was exposed, and the sciatic nerve was triply ligated tightly with silk suture of 8-0 (NATSUME SEISAKUSHO) under microscope so that only half thickness of the nerve was trapped in the ligature, which mice were used as a ligation group. The mice whose sciatic nerves were exposed but not ligated were used as a sham operation group.
Evaluation of neuropathic pain (hereinafter “von Frey test”) was carried out as follows. Mice were conditioned for at least 1 hour in an acryl cage for measurement (NATSUME SEISAKUSHO) placed on a wire net. Thereafter, using a filament (North Coast Medical, Inc. CA, USA) which exerted a pressure of 0.16 g, the mice were subjected to mechanical tactile stimulus by applying the filament to the plantar surface of both hindpaws 3 times, each for 3 seconds, with an interval of 3 seconds.
Seven days after the sciatic nerve ligation, test compounds were orally administered to the mice. Prior to the oral administration of the test compounds, the von Frey test was carried out to split the animals of the ligation group into vehicle groups and test compound-administered groups so that the sums of the total scores of the groups were equalized. The mice of the sham operation groups, the vehicle groups and the test compound-administered groups were subjected to the von Frey test 1 hour, 2 hours and 3 hours after oral administration of a vehicle or a test compound, and the obtained scores were used as an indicator of analgesic effect. As a vehicle of test compound solution or suspension, dimethyl sulfoxide (hereinafter “DMSO”):Tween80:distilled water (1:1:8), 27% hydroxypropyl-β-cyclodextrin (hereinafter “27% HP-β-CD”) or 0.5% MC was used.
For evaluation of drug efficacy, data were statistically processed by the unpaired multigroup t test (adjusted by Dunnett), taking the vehicle group of each measurement time as a control.

[2] = test system: Alzheimer's disease model rats; assay: Morris water maze test in Alzheimer's disease model rats (basal ganglia destroyed with ibotenic acid); type: in vivo, Wistar rats; conditions: 30 mg/kg oral once per day from Day 0 after destruction treatment, not given just before trials; Day 10 to Day 12; compared to vehicle-administered group
[3] = test system: rats with medial septal lesions; conditions: 0.5 mg/kg; Ogura et al., 1998; cited from earlier work
[4] = test system: rat neuropathic pain model; conditions: Clayton et al., Anesthesiology, 2007; cited from earlier work
[5] = test system: rat diabetic neuropathic pain model; conditions: Chen et al., 2009; cited from earlier work
[6] = test system: patients with complex regional pain syndrome; conditions: Sinia et al., Clin J Pain, 2007; cited from earlier work
[7] = Mus musculus, po, 1 h, relative to vehicle and sham operation groups, read-out: Score Improvement

COc1ccc(-n2nc(C3(O)CCC(O)CC3)cc2-c2ccc(C)nc2)cc1 (stereo not drawn) [Compound 15, 1-(1-(4-methoxyphenyl)-5-(6-methylpyridin-3-yl)-1H-pyrazol-3-yl)cyclohexan-cis-1,4-diol]
inhibition in vivo at 10 mg/kg [1, 7]: 84%
von Frey Total Score of 1 Hour after Oral Administration (Mean ± S.E.), Test Compound-Administered Group [1]: 1.0 ± 0.4

COc1ccc(-n2nc(C3(O)CCC(O)CC3)cc2-c2ccc(C)cc2)cc1 (single isomer, unassigned) [Compound 3, 1-(1-(4-methoxyphenyl)-5-(p-tolyl)-1H-pyrazol-3-yl)cyclohexan-cis-1,4-diol]
Escape latency in Morris water maze [2]: statistically significantly shortened

COc1ccc(-n2nc(C3(O)CCC(O)(C(F)(F)F)CC3)cc2-c2ccc(C)cc2)cc1 (stereo not drawn) [Compound 10, 1-(1-(4-methoxyphenyl)-5-(p-tolyl)-1H-pyrazol-3-yl)-4-(trifluoromethyl)cyclohexan-cis-1,4-diol]
inhibition in vivo at 1 mg/kg ([1]; Mus musculus, po, 1 h, dose 1 mg/kg oral, relative to vehicle and sham operation groups, read-out: Score Improvement): 78%

COc1ccc(-n2nc(C3(O)CCC(O)CC3)cc2-c2ccc(C)cc2)cc1F (centres unmarked) [Compound 54]
inhibition in vivo at 10 mg/kg [1, 7]: 83%

COc1cc2c(cc1OC)C(=O)C(CC1CCN(Cc3ccccc3)CC1)C2 (centres unmarked) [donepezil hydrochloric acid salt]
effectiveness in the Morris water maze test [3]: effective

COc1cc2c(cc1OC)C(=O)C(CC1CCN(Cc3ccccc3)CC1)C2 (centres unmarked) [donepezil]
analgesic effect [4]: exhibits an analgesic effect

CC12CC3CC(C)(C1)CC(N)(C3)C2 [memantine]
analgesic effect [5]: exhibits an analgesic effect
analgesic effect [6]: exhibits an analgesic effect

CCc1ccc(-c2cc(C3(O)CCC(O)CC3)nn2-c2ccc(OC)cc2)cc1 (centres unmarked) [Compound 48]
inhibition in vivo at 10 mg/kg [1, 7]: 83%
von Frey Total Score of 1 Hour after Oral Administration (Mean ± S.E.), Test Compound-Administered Group [1]: 1.0 ± 0.5

COc1ccc(-n2nc(C3(O)CCC(O)CC3)cc2-c2ccc(C)c(F)c2)cc1 (centres unmarked) [Compound 55]
inhibition in vivo at 3 mg/kg ([1]; Mus musculus, po, 1 h, dose 3 mg/kg oral, relative to vehicle and sham operation groups, read-out: Score Improvement): 93%

COc1ccc(-c2nc(C3(O)CCC(O)CC3)oc2-c2ccc(OC)cc2)cc1 (stereo not drawn) [Compound 43, 4-(4,5-bis(4-methoxyphenyl)oxazol-2-yl)cyclohexan-cis-1,4-diol]
inhibition in vivo at 10 mg/kg [1, 7]: 100%

COc1ccc(-c2cc(C3(O)CCC(O)CC3)nn2-c2ccc(OC)cc2)cc1 (stereo not drawn) [Compound 8, 1-(1,5-bis(4-methoxyphenyl)-1H-pyrazol-3-yl)cyclohexan-cis-1,4-diol]
inhibition in vivo at 10 mg/kg [1, 7]: 70%

From patent publication US8598212B2, “Therapeutic agent and preventative agent for alzheimer's disease” (Toray Industries, Inc., priority 2010, dated 2013)
